# Reference: patent US20250197406A1, “INDAZOLES AS HEMATOPOIETIC PROGENITOR KINASE 1 (HPK1) INHIBITORS AND METHODS FOR USING SAME” (1ST Biotherapeutics, Inc., priority 2022, published 2025)
# Target: recombinant human HPK1 (Homo sapiens (Human), UniProt Q92918)
# Experiment: HPK1 kinase assay (Promega ADP-Glo kinase assay)
# Assay type: biochemical
# Settings: In vitro activity against HPK1, 5 ng HPK1, MBP substrate, ATP 25 μM, 30° C. 40 minutes
# In short: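 IC50 was derived from percent inhibition across a range of compound concentrations. Recombinant human HPK1 (5 ng) phosphorylated MBP for 40 min at 30 °C in Tris buffer pH 7.5 with 20 mM MgCl2, with ATP added as a 25 µM solution and 0.5% DMSO. ADP formed was read by ADP-Glo luminescence.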
# Chain of recombinant human HPK1 (Q92918 whole entry): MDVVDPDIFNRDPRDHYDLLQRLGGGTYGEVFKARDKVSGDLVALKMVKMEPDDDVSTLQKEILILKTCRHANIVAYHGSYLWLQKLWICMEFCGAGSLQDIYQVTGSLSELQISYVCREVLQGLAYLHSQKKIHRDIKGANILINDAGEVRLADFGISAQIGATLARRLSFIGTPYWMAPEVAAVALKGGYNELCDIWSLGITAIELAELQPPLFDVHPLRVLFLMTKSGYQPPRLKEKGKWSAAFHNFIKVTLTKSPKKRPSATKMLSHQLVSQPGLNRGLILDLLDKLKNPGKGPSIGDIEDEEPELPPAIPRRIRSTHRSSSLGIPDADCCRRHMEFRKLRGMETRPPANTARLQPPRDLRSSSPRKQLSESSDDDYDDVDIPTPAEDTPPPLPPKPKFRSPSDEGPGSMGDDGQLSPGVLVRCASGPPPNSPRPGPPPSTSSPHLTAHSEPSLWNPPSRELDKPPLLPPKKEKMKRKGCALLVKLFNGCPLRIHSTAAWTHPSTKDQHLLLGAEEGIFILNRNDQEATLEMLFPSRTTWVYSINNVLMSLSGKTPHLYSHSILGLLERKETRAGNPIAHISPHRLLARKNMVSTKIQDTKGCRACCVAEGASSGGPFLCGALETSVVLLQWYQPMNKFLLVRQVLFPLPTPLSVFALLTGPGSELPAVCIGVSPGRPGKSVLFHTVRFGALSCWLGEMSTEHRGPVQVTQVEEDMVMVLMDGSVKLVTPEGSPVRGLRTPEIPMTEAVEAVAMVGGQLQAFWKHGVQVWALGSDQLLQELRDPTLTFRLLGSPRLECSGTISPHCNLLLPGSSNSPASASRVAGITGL
row,SMILES,IC50 [nM]
1,"CN(C)c1c(F)c(C(F)(F)F)c(-c2cn3cc(NC(=O)[C@H]4C[C@@H]4F)nc3cn2)c2cn[nH]c12 [Example 31, (1R,2S)-N-(6-(7-(dimethylamino)-6-fluoro-5-(trifluoromethyl)-1H-indazol-4-yl)imidazo[1,2-a]pyrazin-2-yl)-2-fluorocyclopropane-1-carboxamide]",< 100
2,"Cc1c(F)c(C(N)C2CC2)c2[nH]ncc2c1-c1cn2cc(NC(=O)[C@@H]3C[C@@H]3F)nc2cn1 (stereo partly drawn) [Example 23, (1S,2S)-N-(6-(7-(amino(cyclopropyl)methyl)-6-fluoro-5-methyl-1H-indazol-4-yl)imidazo[1,2-a]pyrazin-2-yl)-2-fluorocyclopropane-1-carboxamide]",< 100
3,"Cc1c(F)c(C2=CC(=O)CC2)c2[nH]ncc2c1-c1cn2cc(NC(=O)[C@@H]3C[C@@H]3F)nc2cn1 [Example 7, (1S,2S)-2-fluoro-N-(6-(6-fluoro-5-methyl-7-(3-oxocyclopent-1-en-1-yl)-1H-indazol-4-yl)imidazo[1,2-a]pyrazin-2-yl)cyclopropane-1-carboxamide]",101 to 500
4,"CC(=O)Nc1cn2cc(-c3c(C(F)F)c(F)c(NC(C)C)c4[nH]ncc34)ncc2n1 [Example 153, N-(6-(5-(difluoromethyl)-6-fluoro-7-(isopropylamino)-1H-indazol-4-yl)imidazo[1,2-a]pyrazin-2-yl)acetamide]",< 100
5,"CC(O)c1c(F)c(C(F)F)c(-c2cn3cc(NC(=O)[C@@H]4C[C@@H]4F)nc3cn2)c2cn[nH]c12 (stereo partly drawn) [Example 49, (1S,2S)-N-(6-(5-(difluoromethyl)-6-fluoro-7-(1-hydroxyethyl)-1H-indazol-4-yl)imidazo[1,2-a]pyrazin-2-yl)-2-fluorocyclopropane-1-carboxamide]",< 100
6,"CC(C)Nc1c(F)c(Cl)c(-c2cn3cc(NC(=O)C4CCOC4)nc3cn2)c2cn[nH]c12 (stereo not shown) [Example 125, N-(6-(5-chloro-6-fluoro-7-(isopropylamino)-1H-indazol-4-yl)imidazo[1,2-a]pyrazin-2-yl)tetrahydrofuran-3-carboxamide]",< 100
7,"CC(C)Nc1c(F)c(Cl)c(-c2cn3cc(NC(=O)C(F)F)nc3cn2)c2cn[nH]c12 [Example 122, N-(6-(5-chloro-6-fluoro-7-(isopropylamino)-1H-indazol-4-yl)imidazo[1,2-a]pyrazin-2-yl)-2,2-difluoroacetamide]",< 100
8,"CC(C)Nc1c(F)c(C(F)F)c(-c2cn3cc(NC(=O)[C@@H]4C[C@@H]4F)nc3cn2)c2cn[nH]c12 [Example 28, (1S,2S)-N-(6-(5-(difluoromethyl)-6-fluoro-7-(isopropylamino)-1H-indazol-4-yl)imidazo[1,2-a]pyrazin-2-yl)-2-fluorocyclopropane-1-carboxamide]",< 100
9,"CC(=O)Nc1cn2cc(-c3c(Cl)c(F)c([C@H](C)NC=O)c4[nH]ncc34)ncc2n1 [Example 140, (S)-N-(6-(5-chloro-6-fluoro-7-(1-formamidoethyl)-1H-indazol-4-yl)imidazo[1,2-a]pyrazin-2-yl)acetamide]",< 100
10,"Cc1c(F)c(NC(C)C)c2[nH]ncc2c1-c1cn2cc(NC(=O)[C@H]3C[C@@H]3F)nc2cn1 [Example 35, (1R,2S)-2-fluoro-N-(6-(6-fluoro-7-(isopropylamino)-5-methyl-1H-indazol-4-yl)imidazo[1,2-a]pyrazin-2-yl)cyclopropane-1-carboxamide]",< 100
11,"CC(C)Nc1c(F)c(Cl)c(-c2cn3cc(NC(=O)N4CCCC4)nc3cn2)c2cn[nH]c12 [Example 124, N-(6-(5-chloro-6-fluoro-7-(isopropylamino)-1H-indazol-4-yl)imidazo[1,2-a]pyrazin-2-yl)pyrrolidine-1-carboxamide]",< 100
12,"CC(C)Nc1c(F)c(Cl)c(-c2cn3cc(NC=O)nc3cn2)c2cn[nH]c12 [Example 112, N-(6-(5-chloro-6-fluoro-7-(isopropylamino)-1H-indazol-4-yl)imidazo[1,2-a]pyrazin-2-yl)formamide]",< 100
13,"CC(=O)Nc1cn2cc(-c3c(Cl)c(F)c(C(C)N4CCC(O)C4)c4[nH]ncc34)ncc2n1 (stereo not shown) [Example 163, N-(6-(5-chloro-6-fluoro-7-(1-(3-hydroxypyrrolidin-1-yl)ethyl)-1H-indazol-4-yl)imidazo[1,2-a]pyrazin-2-yl)acetamide]",501 to 1000
14,"CSC(C)C(=O)Nc1cn2cc(-c3c(Cl)c(F)c(NC(C)C)c4[nH]ncc34)ncc2n1 (stereo not shown) [Example 105, N-(6-(5-chloro-6-fluoro-7-(isopropylamino)-1H-indazol-4-yl)imidazo[1,2-a]pyrazin-2-yl)-2-(methylthio)propanamide]",101 to 500
15,"CC(C)Nc1c(F)c(Cl)c(-c2cn3cc(NC(=O)[C@@H]4C[C@@H]4C(N)=O)nc3cn2)c2cn[nH]c12 [Example 39, (1R,2S)-N1-(6-(5-chloro-6-fluoro-7-(isopropylamino)-1H-indazol-4-yl)imidazo[1,2-a]pyrazin-2-yl)cyclopropane-1,2-dicarboxamide]",< 100
16,"O=C(Nc1cn2cc(-c3c(C(F)(F)F)c(F)c(C(O)C4CC4)c4[nH]ncc34)ncc2n1)[C@@H]1C[C@@H]1F (stereo partly drawn) [Example 36, (1S,2S)-N-(6-(7-(cyclopropyl(hydroxy)methyl)-6-fluoro-5-(trifluoromethyl)-1H-indazol-4-yl)imidazo[1,2-a]pyrazin-2-yl)-2-fluorocyclopropane-1-carboxamide]",< 100
17,"CC(=O)Nc1cn2cc(-c3c(Cl)c(F)c(OC4CN(C(=O)CO)C4)c4[nH]ncc34)ncc2n1 [Example 148, N-(6-(5-chloro-6-fluoro-7-((1-(2-hydroxyacetyl)azetidin-3-yl)oxy)-1H-indazol-4-yl)imidazo[1,2-a]pyrazin-2-yl)acetamide]",501 to 1000
18,"CC(C)Nc1c(F)c(Cl)c(-c2cn3cc(NC(=O)[C@@H]4C[C@@H]4CCl)nc3cn2)c2cn[nH]c12 [Example 37, (1R,2S)-N-(6-(5-chloro-6-fluoro-7-(isopropylamino)-1H-indazol-4-yl)imidazo[1,2-a]pyrazin-2-yl)-2-(chloromethyl)cyclopropane-1-carboxamide]",< 100
19,"CC(=O)Nc1cn2cc(-c3c(Cl)c(F)c(OC4CN(C(C)=O)C4)c4[nH]ncc34)ncc2n1 [Example 145, N-(6-(7-((1-acetylazetidin-3-yl)oxy)-5-chloro-6-fluoro-1H-indazol-4-yl)imidazo[1,2-a]pyrazin-2-yl)acetamide]",501 to 1000
